Reference: patent US9062037B2, “Tazarotene derivatives” (Stiefel Laboratories, Inc., priority 2009, dated 2015)

Test system: A431 cells
Test: PMA-induced IL-6 release from A431 cultures
Type: cell-based, human
Conditions: PMA 10 ng/mL; retinoids 0.01 to 1 μg/mL; 48 hours
Experimental: A431 cells were purchased from ATCC(CRL-1555). Cells were seeded onto 12-well plates at a density of 250,000 cells/well and incubated for 72 hours at 37° C./5% CO2 to allow cells to grow to confluency. Phorbol-12-myristate 13-acetate (PMA), diluted in DMSO (10 mg/mL stock), was added in a concentration of 10 ng/mL and retinoids were added in concentrations of 0.01 to 1 μg/mL from a 10 mg/mL stock solution in DMSO. Cultures were incubated for 48 hours at 37° C. At the end of the incubation period, growth media was collected and cell viability was determined using a CellTiterGlo assay kit (Promega). Concentrations of IL-6 were determined by ELISA and normalized based on cell viability.
It is known that PMA up regulates IL-6 expression through transactivation of the nuclear transcription factor, AP-1. Retinoids, such as tretinoin, are known to inhibit transactivation of AP-1 via retinoic acid receptors.

## CCOC(=O)c1ccc(C#Cc2ccc3c(c2)C(C)(C)CC(OC(=O)c2ccccc2)S3)nc1 (stereo not shown) [Compound 4, 6-(2-(2-benzoyloxy-4,4-dimethylthiochroman-6-yl)ethynyl)nicotinic acid, ethyl ester]
  PMA-induced IL-6 release: significantly decreased
